In patent publication US4990650A, “Aromatic derivative and preparation method thereof” (Teijin Limited, priority 1986, dated 1991):

Assays:
[1] = test system: LTB4 production; assay: LTB4 production inhibition effect on iris of normal house rabbit; format: cell-based; conditions: Oryctolagus cuniculus, n=4; for inhibition at 100 µM: 10^-4 M; for inhibition at 10 µM: 10^-5 M; for inhibition at 1 µM: 10^-6 M; for inhibition at 0.1 µM: 10^-7 M
Experimental: LTB4 production inhibition effect on iris of normal house rabbit
The iris of a normal house rabbit was enucleated, dipped in 1 cc of Tylord solution for control and 1 cc of Tylord solution containing a certain level of medicament, and after 5 minutes, the Tylord solution was passed through a SEP-pack, the portion containing leucotriene was separated by HPLC, and the LTB4 amount was measured by radioimmunoassay. (n=4)

[2] = test system: intraocular inflammation by Lipopoly saccharide from E. Coli; assay: Effect of eye drops on endotoxin intraocular inflammation by Lipopoly saccharide from E. Coli; format: in vivo, white male house rabbit; conditions: 20 hours after LPS
Experimental: Effect on intraocular inflammation by Lipopoly saccharide from E. Coli
The eye drops of the compound (3), i.e., anthranylic acid amide of 8-(2-naphthyl)-5,6-trans-5,6-methano-7E-octenoic acid was prepared by formulating 3.8 mg of the compound (3) in 0.1 ml of ethanol followed by adding 0.9 ml of teel oil to obtain eye drops containing 0.38% of compound (3). The pH was 6.8.
The eye drops of the compound (7), i.e., 3,4-dimethoxy cinnamic acid ester of 8-(2-naphthyl)-5,6-trans-5,6-methano-7E-octene-1-ol were prepared by dissolving 5.3 mg of the compound (7) in 0.1 ml of ethanol upon heating at 70° C. to 80° C. followed by adding 0.9 ml of teel oil to obtain eye drops containing 0.53% of compound (7). The pH was 6.8.
Into one eye of a white male house rabbit having a body weight of 1.5 to 2.0 kg, were dropped the eye drops of the compounds (3) and (7), at 6 hours, 4 hours, and 1 hour before the experiment, and into the other eye, control eye drops containing 0.1 ml ethanol and 0.9 ml teel oil were dropped in the same manner.
To the vitreous body, 5 μg of lipopoly saccharide from E. coli (commercially available from Sigma) in 50 μl of physiolological saline was dropped. After 20 hours, the aqueous humor was taken and the protein content of the aqueous humor was determined by a Bio-rad assay method and the leucocyte in the aqueous humor was determined by a Neubauer Chamber. The LTB4 in the aqueous humor was determined by the HPLC and RIA methods.

[3] = test system: LTB4 production; assay: LTB4 production inhibition effect on human blood (Calcium ionophore-stimulated whole blood); format: cell-based; conditions: 10^-5 M Calcium ionophore, Control 20
Experimental: LTB4 production inhibition effect on human blood
A 10^-5 M amount of Calcium ionophore was added to human whole blood, followed by adding the compounds listed in Table 2 to evaluate the inhibition effect of these compounds on LTB4 production. The evaluation was carried out in a manner described in Gresele, P., Arnoult, J., Coene, M. C., Deckmyn, H., and Vermylen, J.: Leukotriene B4 production by stimulated whole blood: Comparative studies with isolated polymorphonuclear cells, Biochem. Biophys. Res. Commun. 137: 334-342, 1986.

| SMILES | inhibition at 100 µM [1] [%] | inhibition at 10 µM [1] [%] | inhibition at 1 µM [1] [%] | inhibition at 0.1 µM [1] [%] | Leucocyle in aqueous ([2]; eye drops 0.38% at 6, 4 and 1 hour before, Control 10.1 × 10^5) | Aqueous protein ([2]; eye drops 0.38% at 6, 4 and 1 hour before, Control 30) [mg/mL] | LTB4 in aqueous ([2]; eye drops 0.38% at 6, 4 and 1 hour before, Control 150) [pg/mL] | LTB4 production Amount ([3]; 10^-5 M) [µg/mL] | LTB4 production Amount ([3]; 10^-6 M) [µg/mL] | LTB4 production Amount ([3]; 10^-7 M) [µg/mL] | Leucocyle in aqueous ([2]; eye drops 0.53% at 6, 4 and 1 hour before, Control 5.5 × 10^5) | Aqueous protein ([2]; eye drops 0.53% at 6, 4 and 1 hour before, Control 33) [mg/mL] | LTB4 in aqueous ([2]; eye drops 0.53% at 6, 4 and 1 hour before, Control 320) [pg/mL] |
| --- | --- | --- | --- | --- | --- | --- | --- | --- | --- | --- | --- | --- | --- |
| O=C(O)CCC[C@H]1C[C@@H]1/C=C/c1ccc2ccccc2c1 (relative stereo) [Reference compound, reference compound] | 35 | 0 |  |  |  |  |  |  |  |  |  |  |  |
| COC(=O)c1ccccc1NC(=O)CCC[C@H]1C[C@@H]1/C=C/c1ccc2ccccc2c1 (relative stereo) [Compound (3), Methyl anthranylate amide of 8-(2-naphthyl)-5,6-trans-5,6-methano-7E-octenoic acid] | 95 | 95 | 89 | 67 | 6.0 × 10^5 cells/ml | 40 | 7.5 | 11 | 12 | 15 |  |  |  |
| COc1ccc(/C=C/C(=O)OCCCC[C@H]2C[C@@H]2/C=C/c2ccc3ccccc3c2)cc1OC (relative stereo) [Compound (7), 3,4-Dimethoxycinnamic acid ester of 8-(2-naphthyl)-5,6-trans-5,6-methano-7 E-octene-1-ol] | 92 | 88 | 80 | 20 |  |  |  | 12 | 12 | 13 | 7.5 × 10^5 cells/ml | 41 | 170 |
